Test results taken from US11292807B2 (OCEANS LTD., priority 2015, dated 2022).
Read-outs that look alike come from different tables or passages of the source.

Columns and labels:
[1] = system: PC3; assay: CIMA assay, cell viability, PC3; settings: for Fold change in viability AVG / In vitro activity against cancer cell lines, PC3 AVG: PC3
[2] = system: THP-1 (acute monocytic leukemia); assay: CIMA assay, cell viability, THP-1; settings: for Fold change in viability AVG / In vitro activity against cancer cell lines, THP-1 AVG: THP-1
[3] = system: SKOV3 (ovarian adenocarcinoma); assay: CIMA assay, cell viability, SKOV3; settings: for Fold change in viability AVG / In vitro activity against cancer cell lines, SKOV AVG: SKOV
[4] = system: MDA-MB; settings: MDA-MB
[5] = system: U373 (glioblastoma-astrocytoma); assay: CIMA assay, cell viability, U373; settings: for Fold change in viability AVG / In vitro activity against cancer cell lines, U373 AVG: U373
[6] = system: MDA-MB; assay: cells; settings: Homo sapiens, read-out: Average cell viability, MDA-MB; for viability at 50 µg/mL: 50 ug/mL; for viability at 100 µg/mL: 100 ug/mL
[7] = system: A549 (lung carcinoma); assay: CIMA assay (colorimetric indicator of metabolic activity), cell viability, A549; settings: for Fold change in viability AVG / In vitro activity against cancer cell lines, A549 AVG: A549
[8] = system: CCD1079SK (fibroblast, noncancerous but proliferating); assay: CIMA assay, cell viability, CCD1079SK; settings: CCD
[9] = CIMA assay, cell viability, CCD1079SK; settings: human, Average cell viability, CCD
[10] = Homo sapiens, PC-3, read-out: Average cell viability, PC3, 50 ug/mL
[11] = Homo sapiens, PC-3, read-out: Average cell viability, PC3, 100 ug/mL
[12] = Homo sapiens, THP-1, read-out: Average cell viability, THP-1, 50 ug/mL
[13] = Homo sapiens, THP-1, read-out: Average cell viability, THP-1, 100 ug/mL
[14] = Homo sapiens, SK-OV-3, read-out: Average cell viability, SKOV, 50 ug/mL
[15] = Homo sapiens, SK-OV-3, read-out: Average cell viability, SKOV, 100 ug/mL
[16] = Homo sapiens, U373 MG, read-out: Average cell viability, U373, 50 ug/mL
[17] = Homo sapiens, U373 MG, read-out: Average cell viability, U373, 100 ug/mL
[18] = Homo sapiens, A549, read-out: Average cell viability, A549, 50 ug/mL
[19] = Homo sapiens, A549, read-out: Average cell viability, A549, 100 ug/mL
[20] = CCD1079SK fibroblasts (noncancerous, proliferating)

## CC/C=C\C/C=C\C/C=C\C/C=C\C/C=C\CCCC(=O)OCC(O)COC1OC(CO)C(O)C(O)C1O (centres unmarked) [Compound 13, lyso-MGDG C20:5]
[1]; Homo sapiens, PC-3, read-out: Average cell viability, PC3, 1 ug/mL
  viability at 1 µg/mL: 104%
[1]; Homo sapiens, PC-3, read-out: Average cell viability, PC3, 10 ug/mL
  viability at 10 µg/mL: 97%
[1]; [10]
  viability at 50 µg/mL: 16%
[1]; [11]
  viability at 100 µg/mL: 12%
[1]; PC3, sample at 1 ug/mL
  PC3 AVG: 1.08
[1]; PC3, sample at 10 ug/mL
  PC3 AVG: 1.01
[1]; PC3, sample at 50 ug/mL
  PC3 AVG: 0.16
[1]; PC3, sample at 100 ug/mL
  PC3 AVG: 0.12
[1]; 1 ug/mL
  Fold change in viability AVG: 1.08
[1]; 10 ug/mL
  Fold change in viability AVG: 1.01
[1]; 50 ug/mL
  Fold change in viability AVG: 0.16
[1]; 100 ug/mL
  Fold change in viability AVG: 0.12
[2]; Homo sapiens, THP-1, read-out: Average cell viability, THP-1, 1 ug/mL
  viability at 1 µg/mL: 104%
[2]; Homo sapiens, THP-1, read-out: Average cell viability, THP-1, 10 ug/mL
  viability at 10 µg/mL: 101%
[2]; [12]
  viability at 50 µg/mL: 40%
[2]; [13]
  viability at 100 µg/mL: 27%
[2]; THP-1, sample at 1 ug/mL
  THP-1 AVG: 1.19
[2]; THP-1, sample at 10 ug/mL
  THP-1 AVG: 1.14
[2]; THP-1, sample at 50 ug/mL
  THP-1 AVG: 0.46
[2]; THP-1, sample at 100 ug/mL
  THP-1 AVG: 0.31
[2]; 1 ug/mL
  Fold change in viability AVG: 1.19
[2]; 10 ug/mL
  Fold change in viability AVG: 1.14
[2]; 50 ug/mL
  Fold change in viability AVG: 0.46
[2]; 100 ug/mL
  Fold change in viability AVG: 0.31
[3]; Homo sapiens, SK-OV-3, read-out: Average cell viability, SKOV, 1 ug/mL
  viability at 1 µg/mL: 125%
[3]; Homo sapiens, SK-OV-3, read-out: Average cell viability, SKOV, 10 ug/mL
  viability at 10 µg/mL: 105%
[3]; [14]
  viability at 50 µg/mL: 78%
[3]; [15]
  viability at 100 µg/mL: 34%
[3]; 1 ug/mL
  Fold change in viability AVG: 1.34
[3]; 10 ug/mL
  Fold change in viability AVG: 1.13
[3]; 50 ug/mL
  Fold change in viability AVG: 0.84
[3]; 100 ug/mL
  Fold change in viability AVG: 0.37
[4]; sample at 1 ug/mL
  MDA-MB AVG: 1.11
[4]; sample at 10 ug/mL
  MDA-MB AVG: 1.14
[4]; sample at 50 ug/mL
  MDA-MB AVG: 0.33
[4]; sample at 100 ug/mL
  MDA-MB AVG: 0.28
[4]; 1 ug/mL
  Fold change in viability AVG: 1.11
[4]; 10 ug/mL
  Fold change in viability AVG: 1.14
[4]; 50 ug/mL
  Fold change in viability AVG: 0.33
[4]; 100 ug/mL
  Fold change in viability AVG: 0.28
[5]; Homo sapiens, U373 MG, read-out: Average cell viability, U373, 1 ug/mL
  viability at 1 µg/mL: 111%
[5]; Homo sapiens, U373 MG, read-out: Average cell viability, U373, 10 ug/mL
  viability at 10 µg/mL: 100%
[5]; [16]
  viability at 50 µg/mL: 7%
[5]; [17]
  viability at 100 µg/mL: 6%
[5]; U373, sample at 1 ug/mL
  U373 AVG: 1.13
[5]; U373, sample at 10 ug/mL
  U373 AVG: 1.02
[5]; U373, sample at 50 ug/mL
  U373 AVG: 0.07
[5]; U373, sample at 100 ug/mL
  U373 AVG: 0.06
[5]; 1 ug/mL
  Fold change in viability AVG: 1.13
[5]; 10 ug/mL
  Fold change in viability AVG: 1.02
[5]; 50 ug/mL
  Fold change in viability AVG: 0.07
[5]; 100 ug/mL
  Fold change in viability AVG: 0.06
[6]; 1 ug/mL
  viability at 1 µg/mL: 102%
[6]; 10 ug/mL
  viability at 10 µg/mL: 105%
[6]
  viability at 50 µg/mL: 30%
  viability at 100 µg/mL: 25%
[7]; A549, sample at 1 ug/mL
  A549 AVG: 0.67
[7]; A549, sample at 10 ug/mL
  A549 AVG: 0.64
[7]; A549, sample at 50 ug/mL
  A549 AVG: 0.67
[7]; A549, sample at 100 ug/mL
  A549 AVG: 0.38
[7]; 1 ug/mL
  Fold change in viability AVG: 0.67
[7]; 10 ug/mL
  Fold change in viability AVG: 0.64
[7]; 50 ug/mL
  Fold change in viability AVG: 0.67
[7]; 100 ug/mL
  Fold change in viability AVG: 0.38
[7]; Homo sapiens, A549, read-out: Average cell viability, A549, 1 ug/mL
  viability at 1 µg/mL: 57%
[7]; Homo sapiens, A549, read-out: Average cell viability, A549, 10 ug/mL
  viability at 10 µg/mL: 55%
[7]; [18]
  viability at 50 µg/mL: 57%
[7]; [19]
  viability at 100 µg/mL: 32%
[8]; 1 ug/mL
  Fold change in viability AVG: 1.13
[8]; 10 ug/mL
  Fold change in viability AVG: 1.09
[8]; 50 ug/mL
  Fold change in viability AVG: 0.24
[8]; 100 ug/mL
  Fold change in viability AVG: 0.15
[9]; CCD1079SK fibroblast cells (noncancerous, proliferating), 1 ug/mL
  viability at 72 h, 1 ug/mL: 103%
[9]; CCD1079SK fibroblasts (noncancerous, proliferating), 10 ug/mL
  viability at 72 h, 10 ug/mL: 99%
[9]; [20]
  viability at 72 h, 50 ug/mL: 22%
  viability at 72 h, 100 ug/mL: 14%

## CCCCCCCCCCCCCCCC(=O)OCC(O)CO (centres unmarked) [77-38-41-1 B, MAG (C16:0)]
[1]; [10]
  viability at 50 µg/mL: 52%
[1]; [11]
  viability at 100 µg/mL: 15%
[1]; 50 ug/mL
  Fold change in viability AVG: 0.54
  In vitro activity against cancer cell lines, PC3 AVG: 0.54
[1]; 100 ug/mL
  Fold change in viability AVG: 0.16
  In vitro activity against cancer cell lines, PC3 AVG: 0.16
[2]; [12]
  viability at 50 µg/mL: 96%
[2]; [13]
  viability at 100 µg/mL: 105%
[2]; 50 ug/mL
  Fold change in viability AVG: 1.10
  In vitro activity against cancer cell lines, THP-1 AVG: 1.10
[2]; 100 ug/mL
  Fold change in viability AVG: 1.19
  In vitro activity against cancer cell lines, THP-1 AVG: 1.19
[3]; [14]
  viability at 50 µg/mL: 52%
[3]; [15]
  viability at 100 µg/mL: 22%
[3]; 50 ug/mL
  Fold change in viability AVG: 0.56
  In vitro activity against cancer cell lines, SKOV AVG: 0.56
[3]; 100 ug/mL
  Fold change in viability AVG: 0.24
  In vitro activity against cancer cell lines, SKOV AVG: 0.24
[4]; 50 ug/mL
  Fold change in viability AVG: 0.70
  In vitro activity against cancer cell lines, MDA-MB AVG: 0.70
[4]; 100 ug/mL
  Fold change in viability AVG: 0.30
  In vitro activity against cancer cell lines, MDA-MB AVG: 0.30
[5]; [16]
  viability at 50 µg/mL: 13%
[5]; [17]
  viability at 100 µg/mL: 7%
[5]; 50 ug/mL
  Fold change in viability AVG: 0.13
  In vitro activity against cancer cell lines, U373 AVG: 0.13
[5]; 100 ug/mL
  Fold change in viability AVG: 0.07
  In vitro activity against cancer cell lines, U373 AVG: 0.07
[6]
  viability at 50 µg/mL: 64%
  viability at 100 µg/mL: 28%
[7]; 50 ug/mL
  Fold change in viability AVG: 0.81
  In vitro activity against cancer cell lines, A549 AVG: 0.81
[7]; 100 ug/mL
  Fold change in viability AVG: 0.30
  In vitro activity against cancer cell lines, A549 AVG: 0.30
[7]; [18]
  viability at 50 µg/mL: 69%
[7]; [19]
  viability at 100 µg/mL: 26%
[8]; 50 ug/mL
  Fold change in viability AVG: 0.85
[8]; 100 ug/mL
  Fold change in viability AVG: 0.79
[9]; [20]
  viability at 72 h, 50 ug/mL: 78%
  viability at 72 h, 100 ug/mL: 72%

## CCCCCCCCCCCCOS(=O)(=O)[O-].[Na+] [cont-SDS]
[1]; 250 ug/ml
  In vitro activity against cancer cell lines, PC3 AVG: 0.08
[2]; 250 ug/ml
  In vitro activity against cancer cell lines, THP-1 AVG: 0.18
[3]; 250 ug/ml
  In vitro activity against cancer cell lines, SKOV AVG: 0.10
[4]; 250 ug/ml
  In vitro activity against cancer cell lines, MDA-MB AVG: 0.16
[5]; 250 ug/ml
  In vitro activity against cancer cell lines, U373 AVG: 0.05
[7]; 250 ug/ml
  In vitro activity against cancer cell lines, A549 AVG: 0.13
